Experimental data taken from patent US12285503B2, “Methods and reagents for tumor targeting with greater efficacy and less toxicity” (CORNELL UNIVERSITY, priority 2017, dated 2025).

Columns and labels:
PSMA [1] = target: T1, PSMA (Homo sapiens, UniProt Q04609); settings: cited from earlier work
T1 construct: when treating prostate cancer patients with PSMA-617-Ac^225 has been reported; host or cells: prostate cancer patients (Kratochwil et al., J. Nucl. Med. 2017)

PSMA [2] = target: T1, PSMA; assay: Normal tissue bio-distribution / organ radioactive dose of PSMA-targeting agents in patients; assay type: in vivo
Description: While the two different classes of agents both bind to their target (e.g., PSMA, SSTR-2, CD20, etc)-expressing tumor cells, the normal tissues that get targeted differs between classes of agents. As an example, PSMA is expressed not only by prostate cancer cells but also by the normal parotid and other salivary glands, lacrimal glands, kidney and small bowel (See FIGS. 4-7). […] With both types of agents, the tumor sites are targeted, but the normal tissues that are targeted are different and virtually mutually exclusive.

PSMA [3] = target: T1, PSMA; assay: PSA declines as indication of anti-tumor activity in patients; assay type: in vivo
Description: J591-Lu^177 begins to induce PSA declines, as an indication of anti-tumor activity, at an administered ^177Lu dose of ≤30 mCi/m^2 given twice at a 2 week interval. As the dose is increased to 140, 160 and 180 mCi [total], the magnitude of the PSA/anti-tumor response gets progressively greater.
PSMA-617/ligand-Lu^177 begins to induce PSA declines at an administered cumulative ^177Lu dose of 300 mCi (11.1 Gbq) given in a 2-dose regimen at a 2 week interval (150 mCi×2). As the dose is increased to 2-dose totals of 400-500 mCi (14.8-18.5 GBq), the magnitude of the PSA/anti-tumor response gets progressively greater.

LNCaP cells = assay: Internalization assay, LNCaP cells; assay type: cell-based; settings: 1 hour at 37° C.
Procedure: (§1) Internalization assay. LNCaP and CWR22Rv1 cells were trypsinized and aliquoted into tubes at 1×10^6 cells per tube. Cells were washed once with RPMI (no FBS). ^177Lu-J591 (150,000 CPM) in […] RPMI (no FBS) per tube and/or ^177Lu-PSMA-617 (110,000 CPM) was added in […] RPMI (no FBS) per tube. The samples were incubated for 1 hour at 37° C., with the cells re-suspended every 15 minutes. After incubation, the cells were washed twice with 0.1% BSA/PBS to remove unbound/un-internalized binding agents. Samples were counted.

[4] = limit to the kidney and salivary glands; cited from earlier work
CWR22Rv1 cells = assay: Internalization assay, CWR22Rv1 cells; assay type: cell-based; settings: 1 hour at 37° C.
Procedure: as §1

T1 sequence (Q04609 whole entry): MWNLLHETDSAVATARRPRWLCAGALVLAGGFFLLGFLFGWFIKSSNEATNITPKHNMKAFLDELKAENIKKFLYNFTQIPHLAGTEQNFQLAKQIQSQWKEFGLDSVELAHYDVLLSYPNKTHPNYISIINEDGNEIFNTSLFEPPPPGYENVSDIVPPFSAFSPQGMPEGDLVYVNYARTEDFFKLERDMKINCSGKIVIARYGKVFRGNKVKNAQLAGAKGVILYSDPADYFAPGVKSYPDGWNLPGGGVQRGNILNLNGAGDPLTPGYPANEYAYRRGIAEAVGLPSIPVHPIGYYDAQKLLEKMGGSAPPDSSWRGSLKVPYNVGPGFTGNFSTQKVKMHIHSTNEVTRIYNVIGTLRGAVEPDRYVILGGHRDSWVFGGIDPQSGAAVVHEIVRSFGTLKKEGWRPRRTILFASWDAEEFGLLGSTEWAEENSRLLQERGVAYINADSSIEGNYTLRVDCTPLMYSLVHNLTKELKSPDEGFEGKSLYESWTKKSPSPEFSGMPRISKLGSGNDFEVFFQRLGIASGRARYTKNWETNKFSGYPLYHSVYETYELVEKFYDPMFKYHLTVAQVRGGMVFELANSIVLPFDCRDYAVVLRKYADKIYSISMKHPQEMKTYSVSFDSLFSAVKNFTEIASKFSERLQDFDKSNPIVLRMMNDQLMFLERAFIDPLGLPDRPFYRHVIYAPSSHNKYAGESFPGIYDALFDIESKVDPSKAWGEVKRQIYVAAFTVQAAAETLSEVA

For `O=C([O-])CC[C@H](NC(=O)N[C@@H](CCCCNC(=O)[C@H](Cc1ccc2ccccc2c1)NC(=O)C1CCC(CNC(=O)CN2CCN(CC(=O)[O-])CCN(CC(=O)[O-])CCN(CC(=O)[O-])CC2)CC1)C(=O)[O-])C(=O)[O-].[225Ac].[H+].[H+].[H+]` (stereo partly shown) [PSMA-617-Ac^225], the tolerable dose (PSMA [1]; human, in vivo) is listed as 100 Kbq/kg, the “treatment activity above which severe xerostomia becomes the dose-limiting toxicity” value (PSMA [1]; human, in vivo) is listed as “exceeded 100 kBq/kg per cycle” and the anti-tumor response (PSMA [1]; treatment activity 50 kBq/kg, patients with high tumor burden) is listed as “insufficient anti-tumor response”. For the same compound, the toxicity (PSMA [1]; treatment activity 50 kBq/kg) was “without toxicity”.

For `O=C([O-])CN1CCN(CC(=O)[O-])CCN(CC(=O)NCC2CCC(C(=O)N[C@@H](Cc3ccc4ccccc4c3)C(=O)NCCCC[C@H](NC(=O)N[C@@H](CCC(=O)O)C(=O)O)C(=O)O)CC2)CCN(CC(=O)[O-])CC1.[177Lu+3]` (stereo partly shown) [PSMA-617-^177Lu], the “dose to the bone marrow / thrombocytopenia” value (PSMA [2]) was “does not cause thrombocytopenia”, the “administered cumulative 177Lu dose at which PSA declines begin” value (PSMA [3]; 2-dose regimen at a 2 week interval) was 11.1 Gbq and the “administered cumulative 177Lu dose at which PSA declines begin” value (PSMA [3]; 2-dose regimen at a 2 week interval (150 mCi×2)) was 300 mCi. For the same compound, the 177Lu internalization (LNCaP cells) was “internalized to a similar degree”, the “maximum safe cumulative dose” value [4] was 27-30 Gbq and the 177Lu internalization (CWR22Rv1 cells) was “internalized to a similar degree”.
